In PubChem BioAssay AID977613 (Broad Institute, 2014) one finds active concentration data, which are given here for 47 compounds.

Calls of active or inactive are those of the source. How the calls were made is not given here.

The test system of this assay is Broad 7084-01 inhibitor HTS, set 2. The experiment in a line: single-concentration hits, screen 7084 set 2 (AID 977613).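 Further: host cells are infected with parasite promastigotes that become internalized.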
Take `O=C(CC1CC1)N1[C@H](CO)[C@@H](c2ccccc2)C12CN(Cc1ccccc1F)C2`: the active concentration was > 10 µM (inactive). The same measure for `O=C(C[C@H]1CC[C@@H]2[C@H](COC[C@@H](O)CN2CC2CC2)O1)NCC1CC1`: > 10 µM (inactive); for `COc1ccc2c3c([nH]c2c1)[C@@H](CO)N(Cc1ccccc1OC)CC31CN(C(C)=O)C1`: > 10 µM (inactive). As for `CCCC#Cc1ccc([C@H]2[C@@H](CO)N3C(=O)CN(C(=O)CN4CCOCC4)C[C@@H]23)cc1`, the active concentration was > 10 µM (inactive). The same measure for `COC(=O)[C@@H]1[C@@H](CO)[C@@H]2Cn3c(cccc3=O)[C@H]1N2Cc1nccs1`: > 10 µM (inactive); for `CCS(=O)(=O)N1CC(=O)N2[C@H](CO)[C@@H](c3ccc(C#CC4CCCCC4)cc3)[C@H]2C1`: > 10 µM (inactive). Then `OC[C@@H]1[C@@H](c2ccc(C#CC3(O)CCCC3)cc2)[C@@H]2CN(Cc3cncnc3)CCCCN12`, with > 10 µM (inactive). The same measure for `Cc1ccccc1-c1ccccc1[C@@H]1[C@H](C#N)N(C(=O)c2cccc(F)c2)[C@H]1CO`: > 10 µM (inactive); for `CC(C)(O)C#Cc1ccc([C@H]2[C@@H](CO)N3CCCCN(S(C)(=O)=O)C[C@@H]23)cc1`: > 10 µM (inactive); for `C/C=C/c1ccc([C@H]2[C@@H](CO)N(CC3CCCC3)C23CN(C(=O)CC)C3)cc1`: > 10 µM (inactive).

With `Cc1cccc(S(=O)(=O)N2CC[C@@H]3[C@H]2c2cc(-c4ccccc4F)ccc2N(C)[C@H]3CO)c1`, the active concentration is > 10 µM (inactive). The same measure for `CCS(=O)(=O)N1CC2(CN(C(=O)Cc3ccccn3)[C@H](CO)c3[nH]c4cc(OC)ccc4c32)C1`: > 10 µM (inactive). Then `O=C1CNC[C@H]2[C@@H](c3ccc(-c4ccccc4F)cc3)[C@H](CO)N12`, with > 10 µM (inactive); and `CN(C)C(=O)C[C@H]1CC[C@@H]2[C@H](COC[C@H](O)CN2CC2CCCC2)O1`, with > 10 µM (inactive).

As for `COCC#Cc1ccc([C@@H]2[C@H](CO)N3C(=O)CN(C(=O)Nc4ccccc4F)C[C@@H]23)cc1`, the active concentration was > 10 µM (inactive). Then `CCS(=O)(=O)N1CC(=O)N2[C@H](C1)[C@@H](c1ccc(C#CC3CCCCC3)cc1)[C@@H]2CO`, with > 10 µM (inactive); and `CC(C)NC(=O)Nc1ccc2c(c1)C(=O)N(C)[C@H]1CC[C@@H](CC(=O)NCc3ccc(F)cc3)O[C@H]1CO2`, with > 10 µM (inactive). The same measure for `O=C(C[C@H]1CC[C@H]2[C@@H](COC[C@H](O)CN2C(=O)Cc2ccccc2)O1)NC1CCCC1`: > 10 µM (inactive); for `CN1C(=O)c2cc(NC(=O)c3cccc(F)c3)ccc2OC[C@H]2O[C@@H](CC(=O)NCC3CCCCC3)CC[C@@H]21`: > 10 µM (inactive). Then `O=C(C1CCC1)N1[C@H](CO)[C@@H](c2ccccc2)C12CN(CCC(F)(F)F)C2`, with > 10 µM (inactive); and `O=C(Nc1cc(F)ccc1F)N1CCCCN2[C@H](C1)[C@H](c1ccc(C3=CCCCC3)cc1)[C@@H]2CO`, with > 10 µM (inactive); and `O=C(C1CCOCC1)N1CC2(C1)[C@H](c1ccccc1)[C@H](CO)N2CCC(F)(F)F`, with > 10 µM (inactive). With `O=C1CNC[C@@H]2[C@@H](c3ccc(-c4ccccc4F)cc3)[C@H](CO)N12`, the active concentration was > 10 µM (inactive). The same measure for `CCNC(=O)C[C@@H]1CC[C@H]2[C@@H](COC[C@@H](O)CN2C(=O)C2CC2)O1`: > 10 µM (inactive); for `O=C(c1ccccn1)N1C[C@@H]2[C@H](c3ccccc31)[C@H](CO)N2C(=O)Nc1ccccc1F`: > 10 µM (inactive); for `Cc1ccccc1-c1ccccc1[C@@H]1[C@@H](C#N)N(C(=O)c2cccc(F)c2)[C@H]1CO`: > 10 µM (inactive). Then `CCNC(=O)C[C@H]1CC[C@H]2[C@@H](COC[C@@H](O)CN2C(=O)C2CC2)O1`, with > 10 µM (inactive); and `O=C(C1CCC1)N1CC2(C1)[C@@H](c1ccccc1)[C@@H](CO)N2C(=O)c1ccccn1`, with less than 10 µM; and `CCS(=O)(=O)Nc1ccc2c(c1)C(=O)N(C)[C@@H]1CC[C@H](CC(=O)NCCOC)O[C@H]1CO2`, with > 10 µM (inactive).

Take `CC(=O)N1CCCCN2[C@H](CO)[C@H](c3ccc(-c4ccccc4)cc3)[C@H]2C1`: the active concentration was > 10 µM (inactive).

For `COc1ccc(-c2ccccc2[C@H]2[C@@H](C#N)N(C(=O)C3CCCCC3)[C@H]2CO)cc1`, the active concentration was > 10 µM (inactive).

Regarding `COc1ccc2c3c(n(C)c2c1)[C@H](CO)N(Cc1cccc(F)c1)CC31CCN(C(=O)Cc2ccccc2)CC1`, the active concentration is > 10 µM (inactive). The same measure for `O=C(Nc1cccc(Cl)c1)N1C[C@@H]2[C@H](c3ccccc31)[C@@H](CO)N2CC1CCOCC1`: > 10 µM (inactive); for `CN1c2ccc(-c3ccccc3F)cc2[C@@H]2[C@@H](CCN2C(=O)Cc2ccccn2)[C@@H]1CO`: > 10 µM (inactive); for `CCCC#Cc1ccc([C@@H]2[C@@H](CO)N3CCCCN(CCC)C[C@@H]23)cc1`: > 10 µM (inactive). As for `Cc1ccccc1S(=O)(=O)N1CC[C@@H]2[C@H]1c1cc(C#Cc3ccccc3)ccc1N[C@@H]2CO`, the active concentration was > 10 µM (inactive). In the case of `O=C(Nc1ccccc1)N1CC(=O)N2[C@@H](CO)[C@H](c3ccc(C#CC4CCCCC4)cc3)[C@@H]2C1`, the active concentration is > 10 µM (inactive). The same measure for `CCN1CC(=O)N2[C@H](CO)[C@@H](c3ccc(Br)cc3)[C@H]2C1`: > 10 µM (inactive).

Turning to `CCS(=O)(=O)N1[C@H](CO)[C@@H](c2ccccc2)C12CN(C(=O)C1CCCCC1)C2`, the active concentration is > 10 µM (inactive).

For `Cn1cnc(S(=O)(=O)N2C[C@@H](O)COC[C@H]3O[C@@H](CC(=O)NC4CCCC4)CC[C@@H]32)c1`, the active concentration was > 10 µM (inactive). Then `C/C=C/c1ccc([C@@H]2[C@H](CO)N(S(=O)(=O)CC)C23CN(C(C)=O)C3)cc1`, with > 10 µM (inactive); and `CCCNC(=O)N1[C@@H]2Cn3c(ccc(-c4ccccc4OC)c3=O)[C@H]1[C@@H](C(=O)NCC)[C@@H]2CO`, with > 10 µM (inactive); and `COc1ccc2c3c([nH]c2c1)[C@@H](CO)N(Cc1ccccc1F)CC31CN(CC2CC2)C1`, with > 10 µM (inactive). Then `O=C(C[C@@H]1CC[C@H]2[C@@H](COC[C@H](O)CN2CCC(F)(F)F)O1)NCC1CC1`, with > 10 µM (inactive). The same measure for `C/C=C/c1ccc([C@H]2[C@@H](CO)N(CCC(F)(F)F)C23CN(C(=O)COC)C3)cc1`: > 10 µM (inactive); for `Cc1noc(C)c1NC(=O)N1C[C@@H](O)COC[C@H]2O[C@H](CC(=O)NCC3CCCCC3)CC[C@@H]21`: > 10 µM (inactive); for `COc1ccccc1S(=O)(=O)N1CC[C@@H]2[C@H]1c1cc(-c3ccc(C#N)cc3)ccc1N[C@@H]2CO`: > 10 µM (inactive).
